IC50 data for 13 compounds are collected here from patent publication US20210009564A1, “CALPAIN MODULATORS AND THERAPEUTIC USES THEREOF” (BLADE THERAPERTICS, INC., priority 2018, published 2021).

One experiment has as its target T1, Human Calpain 1/NS1 (Homo sapiens, UniProt P07384).
T1 sequence (P07384 1-714): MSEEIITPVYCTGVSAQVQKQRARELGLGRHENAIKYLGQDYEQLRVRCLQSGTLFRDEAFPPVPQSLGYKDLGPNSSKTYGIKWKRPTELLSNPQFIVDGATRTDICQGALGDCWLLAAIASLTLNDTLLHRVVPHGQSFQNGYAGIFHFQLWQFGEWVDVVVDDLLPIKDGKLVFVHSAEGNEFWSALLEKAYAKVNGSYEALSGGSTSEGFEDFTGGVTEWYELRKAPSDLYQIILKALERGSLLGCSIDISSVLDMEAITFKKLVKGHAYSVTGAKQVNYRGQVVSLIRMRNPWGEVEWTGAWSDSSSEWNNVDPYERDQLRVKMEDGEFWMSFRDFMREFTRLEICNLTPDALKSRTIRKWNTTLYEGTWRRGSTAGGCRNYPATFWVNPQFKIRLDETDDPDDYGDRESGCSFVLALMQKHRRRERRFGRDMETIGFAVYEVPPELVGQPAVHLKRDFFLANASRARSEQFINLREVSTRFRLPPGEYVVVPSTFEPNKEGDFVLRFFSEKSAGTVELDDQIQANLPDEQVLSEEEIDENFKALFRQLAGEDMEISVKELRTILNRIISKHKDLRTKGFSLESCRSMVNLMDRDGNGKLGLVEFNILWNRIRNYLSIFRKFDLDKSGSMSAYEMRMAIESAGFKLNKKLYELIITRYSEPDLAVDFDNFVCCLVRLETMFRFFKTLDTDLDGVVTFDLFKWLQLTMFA
T1 sequence (P04632 1-268 partner): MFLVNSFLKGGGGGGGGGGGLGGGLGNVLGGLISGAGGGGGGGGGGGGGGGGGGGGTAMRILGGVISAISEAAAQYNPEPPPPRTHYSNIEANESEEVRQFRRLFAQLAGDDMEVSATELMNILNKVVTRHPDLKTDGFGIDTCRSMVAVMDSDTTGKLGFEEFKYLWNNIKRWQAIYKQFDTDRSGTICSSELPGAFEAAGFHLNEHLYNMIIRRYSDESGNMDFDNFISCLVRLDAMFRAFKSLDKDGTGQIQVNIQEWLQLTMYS
The experiment is described as follows: Calpain inhibition, continuous fluorescence (FRET substrate) assay, calpain 1. In kind it is biochemical. Particulars: SensoLyte 520 FRET substrate, 25C. The essentials: (§1)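 Calpains preincubated with serially diluted inhibitors at 25 °C in 50 mM Tris pH 7.5, 100 mM NaCl, 1 mM DTT; CaCl2 plus 5-FAM/QXL 520 FRET substrate started the reaction. Fluorescence (490/520 nm) read 10 min; rates from 1-5 min slopes, IC50 from 4-parameter logistic fit.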

The target of a further experiment is T2, Human Calpain 2/NS1 (Homo sapiens, UniProt P17655).
T2 sequence (P17655 1-700): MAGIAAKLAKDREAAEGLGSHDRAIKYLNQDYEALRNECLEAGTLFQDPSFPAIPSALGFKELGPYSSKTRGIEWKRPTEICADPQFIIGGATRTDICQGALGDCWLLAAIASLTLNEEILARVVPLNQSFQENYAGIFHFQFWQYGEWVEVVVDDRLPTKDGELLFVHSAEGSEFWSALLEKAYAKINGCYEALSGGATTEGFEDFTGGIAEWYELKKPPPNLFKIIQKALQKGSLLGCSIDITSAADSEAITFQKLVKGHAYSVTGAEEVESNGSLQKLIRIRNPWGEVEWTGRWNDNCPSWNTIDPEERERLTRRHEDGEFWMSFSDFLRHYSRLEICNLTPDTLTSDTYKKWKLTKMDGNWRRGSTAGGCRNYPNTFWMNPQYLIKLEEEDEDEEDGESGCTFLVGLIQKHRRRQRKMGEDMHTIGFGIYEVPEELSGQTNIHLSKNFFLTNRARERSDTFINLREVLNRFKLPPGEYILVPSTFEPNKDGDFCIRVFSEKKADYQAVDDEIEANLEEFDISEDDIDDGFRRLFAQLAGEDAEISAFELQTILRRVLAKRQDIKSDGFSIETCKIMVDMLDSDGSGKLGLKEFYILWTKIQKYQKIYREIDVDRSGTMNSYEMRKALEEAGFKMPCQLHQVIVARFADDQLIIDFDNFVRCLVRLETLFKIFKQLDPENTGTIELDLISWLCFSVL
T2 sequence (P04632 1-268 partner): T1 sequence (P04632 1-268 partner)
The experiment is described as follows: Calpain inhibition, continuous fluorescence (FRET substrate) assay, calpain 2. Type of experiment: biochemical. Particulars: SensoLyte 520 FRET substrate, 25C. The gist of the method: as §1

Experiment [1] concerns Calpain activity in SH-SY5Y cells. The experiment is described as follows: SH-SY5Y Suc-LLVY-AMC fluorescence assay. Particulars: Homo sapiens; SH-SY5Y cells, 100 uM Suc-LLVY-AMC; read-out: SH-SY5Y + AMC IC50. In kind it is cell-based.
Experiment [2] shares this test system. The experiment is described as follows: SH-SY5Y spectrin breakdown product (SBDP-150) western blot assay. In kind it is cell-based. Particulars: Homo sapiens; SH-SY5Y cells, 25 uM A23187, SBDP-150 western blot; read-out: SH-SY5Y Spectrin IC50.
For a further experiment, the target named is T3, Human Calpain 9/NS1 (Homo sapiens, UniProt O14815).
T3 sequence (O14815 1-690): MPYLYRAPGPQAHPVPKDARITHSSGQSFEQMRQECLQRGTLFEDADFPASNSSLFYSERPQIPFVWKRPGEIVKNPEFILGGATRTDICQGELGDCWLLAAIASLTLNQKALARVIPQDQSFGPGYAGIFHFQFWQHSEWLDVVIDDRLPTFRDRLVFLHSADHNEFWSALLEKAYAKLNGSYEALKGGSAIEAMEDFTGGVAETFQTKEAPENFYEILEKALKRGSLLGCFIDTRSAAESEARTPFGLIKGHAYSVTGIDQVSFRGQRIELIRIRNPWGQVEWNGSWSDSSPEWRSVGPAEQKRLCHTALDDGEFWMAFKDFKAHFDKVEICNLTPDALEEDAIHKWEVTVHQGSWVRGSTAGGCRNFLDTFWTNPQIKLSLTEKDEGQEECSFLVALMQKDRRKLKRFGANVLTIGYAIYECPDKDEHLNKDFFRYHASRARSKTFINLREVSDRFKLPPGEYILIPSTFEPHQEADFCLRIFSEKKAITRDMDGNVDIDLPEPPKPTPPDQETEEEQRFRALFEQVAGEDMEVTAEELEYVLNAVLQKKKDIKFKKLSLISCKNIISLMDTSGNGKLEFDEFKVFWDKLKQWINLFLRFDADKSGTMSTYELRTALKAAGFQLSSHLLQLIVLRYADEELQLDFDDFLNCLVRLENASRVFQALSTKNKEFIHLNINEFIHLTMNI
T3 sequence (P04632 1-268 partner): T1 sequence (P04632 1-268 partner)
The experiment is described as follows: Calpain inhibition, continuous fluorescence (FRET substrate) assay, calpain 9. In kind it is biochemical. Particulars: SensoLyte 520 FRET substrate, 25C. The gist of the method: as §1

Consider `O=C(O)C(=O)C(Cc1ccccc1)NC(=O)c1nsnc1-c1ccccc1` (centres unmarked) [Compound 67, 2-OXO-4-PHENYL-3-(4-PHENYL-1,2,5-THIADIAZOLE-3-CARBOXAMIDO)BUTANOIC ACID], for which the IC50 at Human Calpain 1/NS1 was below 3 µM; at Human Calpain 2/NS1, below 3 µM; in experiment [1], below 10 µM; in experiment [2], below 10 µM; against Human Calpain 9/NS1, below 3 µM.

For `Cn1cc(C(=O)NC(Cc2ccccc2)C(=O)C(N)=O)c(-c2cccc3ocnc23)n1` (centres unmarked) [Compound 68, N-(4-AMINO-3,4-DIOXO-1-PHENYLBUTAN-2-YL)-3-(BENZO[D]OXAZOL-4-YL)-1-METHYL-1H-PYRAZOLE-4-CARBOXAMIDE], the IC50 was below 3 µM at Human Calpain 1/NS1; below 3 µM on Human Calpain 2/NS1; below 10 µM in experiment [1]; 10 to 25 µM in experiment [2]; below 3 µM on Human Calpain 9/NS1.

On to `Cn1cc(C(=O)NC(Cc2ccccc2)C(=O)C(N)=O)c(-c2cccc3nn(C)cc23)n1` (centres unmarked) [Compound 69, N-(4-AMINO-3,4-DIOXO-1-PHENYLBUTAN-2-YL)-1-METHYL-3-(2-METHYL-2H-INDAZOL-4-YL)-1H-PYRAZOLE-4-CARBOXAMIDE], for which the IC50 was below 3 µM at Human Calpain 1/NS1; below 3 µM against Human Calpain 2/NS1; 10 to 25 µM in experiment [1]; 10 to 25 µM in experiment [2]; below 3 µM against Human Calpain 9/NS1.

For the compound `NC(=O)C(=O)C(Cc1ccccc1)NC(=O)c1cn(C(F)F)nc1-c1cccc2scnc12` (centres unmarked) [Compound 70, N-(4-AMINO-3,4-DIOXO-1-PHENYLBUTAN-2-YL)-3-(BENZO[D]THIAZOL-4-YL)-1-(DIFLUOROMETHYL)-1H-PYRAZOLE-4-CARBOXAMIDE], the IC50 against Human Calpain 1/NS1 was below 3 µM; against Human Calpain 2/NS1, below 3 µM; in experiment [1], below 10 µM; in experiment [2], below 10 µM; against Human Calpain 9/NS1, below 3 µM.

As for `NC(=O)C(=O)C(Cc1ccccc1)NC(=O)c1cn(C(F)F)nc1-c1cccc2ocnc12` (centres unmarked) [Compound 71, N-(4-AMINO-3,4-DIOXO-1-PHENYLBUTAN-2-YL)-3-(BENZO[D]OXAZOL-4-YL)-1-(DIFLUOROMETHYL)-1H-PYRAZOLE-4-CARBOXAMIDE], the IC50 against Human Calpain 1/NS1 was below 3 µM; on Human Calpain 2/NS1 it was below 3 µM; in experiment [1], below 10 µM; in experiment [2], below 10 µM; against Human Calpain 9/NS1, below 3 µM.

For the compound `Cn1cc(C(=O)NC(Cc2ccccc2)C(=O)C(=O)O)c(-c2cccc(F)c2)n1` (centres unmarked) [Compound 72, 3-(3-(3-FLUOROPHENYL)-1-METHYL-1H-PYRAZOLE-4-CARBOXAMIDO)-2-OXO-4-PHENYLBUTANOIC ACID], the IC50 at Human Calpain 1/NS1 was below 3 µM; at Human Calpain 2/NS1, below 3 µM; in experiment [1], below 10 µM; in experiment [2] it was above 25 µM; at Human Calpain 9/NS1, below 3 µM.

Take `Cc1cc(-c2nc(C)oc2C(=O)NC(Cc2ccccc2)C(=O)C(N)=O)c(C)o1` (centres unmarked) [Compound 78, N-(4-AMINO-3,4-DIOXO-1-PHENYLBUTAN-2-YL)-4-(2,5-DIMETHYLFURAN-3-YL)-2-METHYLOXAZOLE-5-CARBOXAMIDE]: the IC50 is below 3 µM against Human Calpain 1/NS1; below 3 µM against Human Calpain 2/NS1; below 10 µM in experiment [1]; 10 to 25 µM in experiment [2]; below 3 µM at Human Calpain 9/NS1.

`NC(=O)C(=O)C(Cc1ccccc1)NC(=O)c1nsnc1-c1ccoc1Cl` (centres unmarked) [Compound 79, N-(4-AMINO-3,4-DIOXO-1-PHENYLBUTAN-2-YL)-4-(2-CHLOROFURAN-3-YL)-1,2,5-THIADIAZOLE-3-CARBOXAMIDE]: the IC50 on Human Calpain 1/NS1 is below 3 µM; against Human Calpain 2/NS1, below 3 µM; in experiment [1], below 10 µM; in experiment [2], below 10 µM; against Human Calpain 9/NS1, below 3 µM.

As for `Cc1nc(-c2ccccc2F)c(C(=O)NC(Cc2ccccc2F)C(=O)C(N)=O)o1` (centres unmarked) [Compound 80, N-(4-AMINO-1-(2-FLUOROPHENYL)-3,4-DIOXOBUTAN-2-YL)-4-(2-FLUOROPHENYL)-2-METHYLOXAZOLE-5-CARBOXAMIDE], the IC50 at Human Calpain 1/NS1 is below 3 µM; against Human Calpain 2/NS1 it was below 3 µM; in experiment [1] it was below 10 µM; in experiment [2], below 10 µM; against Human Calpain 9/NS1, below 3 µM.

In the case of `Cc1nc(-c2cc(Cl)oc2Cl)c(C(=O)NC(Cc2ccccc2)C(=O)C(N)=O)o1` (centres unmarked) [Compound 81, N-(4-AMINO-3,4-DIOXO-1-PHENYLBUTAN-2-YL)-4-(2,5-DICHLOROFURAN-3-YL)-2-METHYLOXAZOLE-5-CARBOXAMIDE], the IC50 on Human Calpain 1/NS1 is below 3 µM; on Human Calpain 2/NS1 it was below 3 µM; in experiment [1], below 10 µM; in experiment [2], 10 to 25 µM; against Human Calpain 9/NS1, below 3 µM.

Turning to `N#CC(Cc1ccccc1)NC(=O)c1nsnc1-c1ccccc1` (centres unmarked) [Compound 82, N-(1-CYANO-2-PHENYLETHYL)-4-PHENYL-1,2,5-THIADIAZOLE-3-CARBOXAMIDE], the IC50 on Human Calpain 1/NS1 was above 10 µM; on Human Calpain 2/NS1 it was above 10 µM; in experiment [1] it was above 25 µM; in experiment [2], above 25 µM; against Human Calpain 9/NS1, above 10 µM.

In the case of `Cc1nc(-c2ccccc2F)c(C(=O)NC(Cc2ccccc2Cl)C(=O)C(N)=O)o1` (centres unmarked) [Compound 83, N-(4-AMINO-1-(2-CHLOROPHENYL)-3,4-DIOXOBUTAN-2-YL)-4-(2-FLUOROPHENYL)-2-METHYLOXAZOLE-5-CARBOXAMIDE], the IC50 at Human Calpain 1/NS1 was below 3 µM; against Human Calpain 2/NS1 it was below 3 µM; in experiment [1], below 10 µM; in experiment [2], above 25 µM; against Human Calpain 9/NS1, below 3 µM.

Regarding `Cc1nc(-c2ccoc2C)c(C(=O)NC(Cc2ccccc2)C(=O)C(N)=O)o1` (centres unmarked) [Compound 84, N-(4-AMINO-3,4-DIOXO-1-PHENYLBUTAN-2-YL)-2-METHYL-4-(2-METHYLFURAN-3-YL)OXAZOLE-5-CARBOXAMIDE], the IC50 is below 3 µM on Human Calpain 1/NS1; below 3 µM against Human Calpain 2/NS1; below 10 µM in experiment [1]; 10 to 25 µM in experiment [2]; below 3 µM against Human Calpain 9/NS1.
